# Assay results: patent publication US7186722B2, “2-heteroaryl-3,4-dihydro-2h-pyrrole derivatives and the use thereof as pesticides” (Bayer Cropscience AG, priority 2001, dated 2007)
# Test system: not listed separately
# Experiment: logP determination by HPLC (reversed-phase C 18), EEC Directive 79/831 Annex V.A8
# Type: physicochemical
# Settings: pH 2.3
# Procedure: The stated logP values were determined in accordance with EEC Directive 79/831 Annex V.A8 by HPLC (High Performance Liquid Chromatography), using a reversed-phase column (C 18). Temperature: 43° C.
# In the acidic range, the determination was carried out at pH 2.3 using the mobile phases 0.1% aqueous phosphoric acid and acetonitrile; linear gradient from 10% acetonitrile to 90% acetonitrile.
# In the neutral range, the determination was carried out at pH 7.5 using the mobile phases 0.01 molar aqueous phosphate buffer solution and acetonitrile; linear gradient from 10% acetonitrile to 90% acetonitrile.
# Calibration was carried out using unbranched alkan-2-ones (having 3 to 16 carbon atoms) with known logP values (determination of the logP values by the retention times using linear interpolation between two successive alkanones).
row,SMILES,chromatographic logP
1,"Fc1cccc(F)c1C1=NC(c2ccc(Cl)nc2)CC1 (stereo not drawn) [Example 9, 2-(6-chloro-3-pyridinyl)-5-(2,6-difluorophenyl)-3,4-dihydro-2H-pyrrole]",1.93

# Same assay, conditions: pH 2.3; HPLC, 0.1% aqueous phosphoric acid/acetonitrile; 43° C.; read-out: log P (pH 2.3)
row,SMILES,chromatographic logP
1,CC(C)(C)OC(=O)NC(CCC(=O)c1c(F)cccc1F)c1sccc1Cl (stereo not drawn) [II-3],4.28
2,CC(C)(C)OC(=O)NC(CCC(=O)c1c(F)cccc1F)c1cccs1 (stereo not drawn) [II-2],4.48

# Same assay, conditions: reversed-phase C18 HPLC column; pH 2.3; HPLC, 0.1% aqueous phosphoric acid/acetonitrile; 43° C.; read-out: log P (pH 2.3)
row,SMILES,chromatographic logP
1,"O=C(CCC(Cl)c1cc(Br)cs1)c1c(F)cccc1F (stereo not drawn) [XV-1, 4-(4-bromo-2-thienyl)4-chloro-1-(2,6-difluorophenyl)-1-butanone]",3
2,"Fc1cccc(F)c1C1=NC(c2ccc(-c3ccc(OC(F)(F)F)cc3)nc2)CC1 (stereo not drawn) [Example 10, 5-[5-(2,6-difluorophenyl)-3,4-dihydro-2H-pyrrol-2-yl]-2-[4-(trifluoromethoxy)phenyl]pyridine]",3.5
3,"O=C(c1c(F)cccc1F)C1CC1c1cc(Br)cs1 (stereo not drawn) [XVII-1, [2-(4-bromo-2-thienyl)cyclopropyl](2,6-difluorophenyl)methanone]",4.14
4,"O=C1CCC(c2ccc(Br)s2)N1 (stereo not drawn) [XI-1, 5-(5-bromo-2-thienyl)-2-pyrrolidinone]",1.62
5,"CC(C)(C)OC(=O)N1C(=O)CCC1c1ccc(Br)s1 (stereo not drawn) [IX-1, tert-butyl 2-(5-bromo-2-thienyl)-5-oxo-1-pyrrolidinecarboxylate]",3.03
6,Fc1cccc(F)c1C1=NC(c2cccs2)CC1 (stereo not drawn) [Example 2],1.95
7,"Fc1cccc(F)c1C1=NC(c2ccc(-c3cccc(OC(F)(F)F)c3)s2)CC1 (stereo not drawn) [Example 12, 5-(2,6-difluorophenyl)-2-{5-[3-(trifluoromethoxy)phenyl]-2-thienyl}-3,4-dihydro-2H-pyrrole]",4.84
8,CC(C)(C)OC(=O)NC(CCC(=O)c1c(F)cccc1F)c1cc2ccccc2s1 (stereo not drawn) [II-5],4.2
9,"CC(C)(C)OC(=O)NC(CCC(=O)c1c(F)cccc1F)c1ccc(Br)s1 (stereo not drawn) [II-1, tert-butyl 1-(5-bromo-2-thienyl)-4-(2,6-difluorophenyl)-4-oxobutylcarbamate]",4.29
10,Fc1cccc(F)c1C1=NC(c2cc3ccccc3s2)CC1 (stereo not drawn) [Example 5],3.11
11,"Fc1cccc(F)c1C1=NC(c2cc(-c3cccc(OC(F)(F)F)c3)cs2)CC1 (stereo not drawn) [Example 13, 5-(2.6-difluorophenyl)-2-{4-[3-(trifluoromethoxy)phenyl]-2-thienyl}-3,4-dihydro-2H-pyrrole]",4.08
12,CC(C)(C)OC(=O)N1C(=O)CCC1c1cccs1 (stereo not drawn) [IX-2],2.39
13,O=C1CCC(c2cccs2)N1 (stereo not drawn) [XI-2],1.03
14,CC(C)(C)OC(=O)N1C(=O)CCC1c1cc2ccccc2s1 (stereo not drawn) [IX-5],3.03
15,Cc1ccsc1C1CCC(c2c(F)cccc2F)=N1 (stereo not drawn) [Example 4],2.34
16,"[N-]=[N+]=NC(CCC(=O)c1c(F)cccc1F)c1ccc(-c2ccc(OC(F)(F)F)cc2)nc1 (stereo not drawn) [III-3, 4-azido-1-(2,6-difluorophenyl)-4-{6-[4-(trifluoromethoxy)phenyl]-3-pyridinyl}-1-butanone]",4.78
17,"Fc1cccc(F)c1C1=NC(c2ccc(-c3ccc(OC(F)(F)F)cc3)s2)CC1 (stereo not drawn) [Example 11, 5-(2,6-difluorophenyl)-2-{5-[4-(trifluoromethoxy)phenyl]-2-thienyl}-3,4-dihydro-2H-pyrrole]",5.16

row,SMILES,chromatographic logP
1,"Fc1cccc(F)c1C1=NC(c2cc(-c3ccc(OC(F)(F)F)cc3)cs2)CC1 (stereo not drawn) [Example 14, 5-(2,6-difluorophenyl)-2-{4-[4-(trifluoromethoxy)phenyl]-2-thienyl}-3,4-dihydro-2H-pyrrole]",4.66
2,Fc1cccc(F)c1C1=NC(c2sccc2Cl)CC1 (stereo not drawn) [Example 3],3.34
3,"O=C(CCC(Cl)c1ccc(Cl)nc1)c1c(F)cccc1F (stereo not drawn) [XV-2, 4-(6-chloro-3-pyridinyl)-4-chloro-1-(2,6-difluorophenyl)-1-butanone]",3.37
4,"[N-]=[N+]=NC(CCC(=O)c1c(F)cccc1F)c1cc(Br)cs1 (stereo not drawn) [III-1, 4-azido-4-(4-bromo-2-thienyl)-1-(2,6-difluorophenyl)-1-butanone]",3
5,O=C1CCC(c2cc3ccccc3s2)N1 (stereo not drawn) [XI-5],1.73
6,Cc1ccsc1C(CCC(=O)c1c(F)cccc1F)NC(=O)OC(C)(C)C (stereo not drawn) [II-4],4.27
7,"O=C(CCC(Cl)c1ccc(-c2ccc(OC(F)(F)F)cc2)nc1)c1c(F)cccc1F (stereo not drawn) [XV-3, 4-chloro-1-(2,6-difluorophenyl)4-{6-[4-(trifluoromethoxy)phenyl]-3-pyridinyl}-1-butanone]",4.88
8,"[N-]=[N+]=NC(CCC(=O)c1c(F)cccc1F)c1ccc(Cl)nc1 (stereo not drawn) [III-2, 4-azido-4-(6-chloro-3-pyridinyl)-1-(2,6-difluorophenyl)-1-butanone]",3.33
9,"Fc1cccc(F)c1C1=NC(c2ccc(Br)s2)CC1 (stereo not drawn) [Example 1, 2-(5-bromo-2-thienyl)-5-(2,6-difluorophenyl)-3,4-dihydro-2H-pyrrole]",3.45
10,Cc1ccsc1C1CCC(=O)N1 (stereo not drawn) [XI-4],1.33
11,"O=C(/C=C/c1cc(Br)cs1)c1c(F)cccc1F [XVIII-1, 3-(4-bromo-2-thienyl)-1-(2,6-difluorophenyl)-2-propen-1-one]",3.78
12,Cc1ccsc1C1CCC(=O)N1C(=O)OC(C)(C)C (stereo not drawn) [IX-4],2.65
13,O=C1CCC(c2sccc2Cl)N1 (stereo not drawn) [XI-3],1.41
14,"Fc1cccc(F)c1C1=NC(c2cc(Br)cs2)CC1 (stereo not drawn) [Example 8, 2-(4-bromo-2-thienyl)-5-(2,6-difluorophenyl)-3,4-dihydro-2H-pyrrole]",3.41
15,"O=C(c1c(F)cccc1F)C1CC1c1ccc(Cl)nc1 (stereo not drawn) [XVII-2, [2-(6-chloro-3-pyridinyl)cyclopropyl](2,6-difluorophenyl)methanone]",2.92
16,"O=C(c1c(F)cccc1F)C1CC1c1ccc(-c2ccc(OC(F)(F)F)cc2)nc1 (stereo not drawn) [XVII-3, (2,6-difluorophenyl)(2-{6-[4-(trifluoromethoxy)phenyl]-3-pyridinyl}cyclopropyl)methanone]",4.4
17,"O=C(/C=C/c1ccc(Cl)nc1)c1c(F)cccc1F [XVIII-2, 3-(6-chloro-3-pyridinyl)-1-(2,6-difluorophenyl)-2-propen-1-one]",2.87

# Same assay, conditions: reversed-phase C18 HPLC column; pH 7.5; HPLC, 0.01 molar aqueous phosphate buffer/acetonitrile; 43° C.; read-out: log P (pH 7.5)
row,SMILES,chromatographic logP
1,CC(C)(C)OC(=O)N1C(=O)CCC1c1sccc1Cl (stereo not drawn) [IX-3],2.77

# Test system: larvae of the mustard beetle (Phaedon cochleariae)
# Experiment: Phaedon Larvae Test
# Type: in vivo
# Settings: 1000 ppm, cabbage leaves dipped
# Procedure: Phaedon Larvae Test • Solvent: 30 parts by weight of dimethylformamide • Emulsifier: 1 part by weight of alkylaryl polyglycol ether To produce a suitable preparation of active compound, 1 part by weight of active compound is mixed with the stated amount of solvent and emulsifier, and the concentrate is diluted with emulsifier-containing water to the desired concentration. Cabbage leaves (Brassica oleracea) are treated by being dipped into the preparation of active compound of the desired concentration and are populated with larvae of the mustard beetle (Phaedon cochleariae) while the leaves are still moist.
row,SMILES,Kill rate in % after 7 d
1,Fc1cccc(F)c1C1=NC(c2cc(-c3ccc(OC(F)(F)F)cc3)cs2)CC1 (stereo not drawn) [drawing 89],100%
2,Cc1ccsc1C1CCC(c2c(F)cccc2F)=N1 (stereo not drawn) [drawing 87],100%
3,Fc1cccc(F)c1C1=NC(c2ccc(-c3cccc(OC(F)(F)F)c3)s2)CC1 (stereo not drawn) [drawing 88],100%

# Test system: caterpillars of the army worm (Spodoptera frugiperda)
# Experiment: Spodoptera frugiperda Test
# Type: in vivo
# Settings: 500 ppm, cabbage leaves dipped
# Procedure: Spodoptera frugiperda Test
# • Solvent: 30 parts by weight of dimethylformamide. • Emulsifier: 1 part by weight of alkylaryl polyglycol ether
# To produce a suitable preparation of active compound, 1 part by weight of active compound is mixed with the stated amount of solvent and emulsifier, and the concentrate is diluted with emulsifier-containing water to the desired concentration.
# Cabbage leaves (Brassica oleracea) are treated by being dipped into the preparation of active compound of the desired concentration and are populated with caterpillars of the army worm (Spodoptera frugiperda) while the leaves are still moist.
# After the desired period of time, the kill in % is determined. 100% means that all caterpillars have been killed; 0% means that none of the caterpillars have been killed.
row,SMILES,Kill rate in % after 7 d
1,Fc1cccc(F)c1C1=NC(c2ccc(Cl)nc2)CC1 (stereo not drawn) [drawing 96],100%
2,Fc1cccc(F)c1C1=NC(c2cc3sc(-c4ccc(OC(F)(F)F)cc4)cc3s2)CC1 (stereo not drawn) [drawing 91],100%

# Same assay, conditions: 1000 ppm, cabbage leaves dipped
row,SMILES,Kill rate in % after 7 d
1,Fc1cccc(F)c1C1=NC(c2ccc(-c3cccc(OC(F)(F)F)c3)s2)CC1 (stereo not drawn) [drawing 92],100%
2,Fc1cccc(F)c1C1=NC(c2cc(-c3ccc(OC(F)(F)F)cc3)cs2)CC1 (stereo not drawn) [drawing 95],100%
3,Fc1cccc(F)c1C1=NC(c2cc(Br)cs2)CC1 (stereo not drawn) [drawing 93],100%
4,Fc1cccc(F)c1C1=NC(c2cc(-c3cccc(OC(F)(F)F)c3)cs2)CC1 (stereo not drawn) [drawing 94],100%

# Test system: Meloidogyne incognita
# Experiment: Meloidogyne Test
# Type: in vivo
# Settings: 20 ppm, nematicidal action by formation of galls on lettuce roots
# Procedure: • Solvent: 30 parts by weight of dimethylformamide • Emulsifier: 1 part by weight of alkylaryl polyglycol ether
# To produce a suitable preparation of active compound, 1 part by weight of active compound is mixed with the stated amount of solvent and emulsifier, and the concentrated is diluted with water to the desired concentration.
# Vessels are filled with sand, solution of active compound, Meloidogyne incognita egg/larvae suspension and lettuce seeds. The lettuce seeds germinate and the plants develop. On the roots galls are formed.
# After the desired period of time, the nematicidal action is determined in % by the formation of galls. 100% means that no galls have been found; 0% means that the number of galls on the treated plants corresponds to that of the untreated control.
row,SMILES,Kill rate in % after 14 d
1,Fc1cccc(F)c1C1=NC(c2ccc(-c3cccc(OC(F)(F)F)c3)s2)CC1 (stereo not drawn) [drawing 85],98%
